Test results as given in patent US11026943B2, “Aminoquinoline derivatives and uses thereof” (UNIVERSITY OF DELHI, priority 2012, dated 2021).

Columns and labels:
Nurr1 LBD [1] = target: T1, Nurr1 LBD (Mus musculus, UniProt Q06219); assay: Filter binding assay with [3H]-CQ (saturation and competition); conditions: 500 nM [3H]-CQ
Description: The basal level of transcriptional activity was normalized to 1. The bars represent means±SEM from three independent experiments. (FIG. 13C) Effect of Nurr1 specific siRNA on Nurr1 LBD's transactivation activity. […] (FIG. 13D) Human neuroblastoma SK-N-BE(2)C cells were transfected with the N-terminal flag-tagged SRC1 or SRC3 and the C-terminal myc-tagged full-length Nurr1. […] Cell lysates were immunoprecipitated (IP) using anti-flag antibodies and analyzed by immunoblotting (IB) using anti-myc antibodies. […] The fold induction was derived by comparing each luciferase activity to basal level obtained by non-SRC transfection. […] The concentrations (04) are shown next to the arrows. […] Specific binding was calculated as the difference of total and non-specific binding. The insert indicates Scatchard analysis of the specific binding. […] The data represent the average of triplicate from three independent experiments. All graphs, Kd, Ki, and Bmax values were generated using the non-linear regression program Prism version 5.02.
GF/C filters were wet with in binding buffer and placed on a 48-place filter manifold. […] Filters were washed with 4×100 ml binding buffer, dried, and mixed with 5 ml Scintiverse BD (Fisher) and radioactivity was determined in a Beckman LS6000SC liquid scintillation counter. […] The mixture was applied to GF/C filter and filter was washed and counted as described above.

[2] = test system: murine microglial BV-2 cells; format: cell-based, mouse; conditions: 10 ng/ml LPS for 4 hrs, AQ 10 and 15 μM
Protocol: To prepare primary cultures of DA neurons, the ventral mesencephalon was removed from 14 day gestation Sprague Dawley rat embryo (Charles River, Cambridge, Mass.). Tissues were incubated with 0.01% trypsin in MEM (MEM, Invitrogen) for 10 min at 37° C. and triturated using a constricted Pasteur pipette. DA neurons were plated at 1.0×10^5 cells per 9 mm diameter glass cover slip precoated with 100 μg/ml poly-D-lysine (Sigma, St. Louis, Mo.) and 4 μg/ml laminin (Invitrogen). DA neurons were maintained at 37° C. in a humidified 5% CO2 atmosphere in minimum essential medium supplemented with 10% FBS (Hyclone), 2 mM glutamine and 6.0 g/l glucose. At 5 or 6 days in vitro, DA neurons were washed with MEM and treated with various experimental reagents for the time periods indicated. Reagents used were 6-OHDA (Sigma), N-acetyl-cysteine, N-benzyloxycarbonyl-Val-Ala-Asp-fluoromethylketone (Z-VAD-fink; Enzyme Systems Products, Livermore, Calif.). BV-2 cells, a microglial-like mouse cell line, were thawed and passaged until logarithmic growth was achieved. Cell cultures were maintained in 6-well culture plate (Corning Costar, Corning, N.Y.) at a concentration of 1.0×10^5 cells per well, in the growth medium consisting of DMEM (Sigma, St. Louis, Mo.), supplemented with 10% fetal bovine serum (FBS; Hyclone) heat inactivated at 56° C. for 30 min, 2 mM L-glutamine(Sigma) and 1× Pen-Strep (Invitrogen). […]

Nurr1 LBD [3] = target: T1, Nurr1 LBD; assay: Nurr1 LBD GAL4 reporter assay (pSVGAL(DBD)-N(LBD), p8xGAL-Luc) in SK-N-BE(2)C cells; format: cell-based; conditions: read-out: EC50 Nurr1 LBD-based reporter activity
Description: The pTH2600LUC reporter construct contains the 2.6 kb upstream sequences of the rat tyrosine hydroxylase gene in front of a firefly luciferase gene in pGL3-basic vector. A Nurr1-expression plasmid, pSV40Nurr1, was kindly provided by Dr Orla M. Conneely at Baylor College of Medicine (Houston, Tex., USA). […] The VP16/SRC1 and VP16/SRC3 hybrid were constructed by inserting the transactivation domain of the VP16 protein upstream of SRC1 and SRC3, respectively. […] The recombinant proteins were purified by Ni-NTA column chromatography (Qiagen) according to the manufacturer's instruction. The integrity of all sequences was verified by DNA sequence analyses.
Human neuroblastoma SK-N-BE(2)C cells were maintained in Dulbecco's modified Eagle's medium (DMEM) supplemented with 10% fetal bovine serum. All culture media contained 100 units/ml penicillin and 100 μg/ml streptomycin. For transfection, cells were plated at 1.5×10^5 cells/well in the DMEM media without antibiotic into 24-well plates 1 day prior to transfection. Transfections were carried out by the Lipofectamine plus (Invitrogen) according to the manufacture's protocol. Total DNA amount was 0.5 μg per well with 0.1 μg of pRSV-β-gal as an internal control. 6 hours after transfection, compounds in the DMEM media with 1% charcoal-stripped fetal calf serum was added and incubated overnight. Cells from each well were lysed with 100 μl of lysis buffer, which contains 25 mM Tris-phosphate (pH 7.8), 2 mM DTT, 2 mM CDTA (1,2-diaminocyclohexane-N,N,N′,N′-tetraacetic acid), 10% glycerol, and 1% Triton X-100. Then equal volume of firefly luciferase substrate was added and the luciferase activity was measured using a Luminometer plate reader and normalized for beta-galactosidase activity.

T1 sequence (Q06219 328-598): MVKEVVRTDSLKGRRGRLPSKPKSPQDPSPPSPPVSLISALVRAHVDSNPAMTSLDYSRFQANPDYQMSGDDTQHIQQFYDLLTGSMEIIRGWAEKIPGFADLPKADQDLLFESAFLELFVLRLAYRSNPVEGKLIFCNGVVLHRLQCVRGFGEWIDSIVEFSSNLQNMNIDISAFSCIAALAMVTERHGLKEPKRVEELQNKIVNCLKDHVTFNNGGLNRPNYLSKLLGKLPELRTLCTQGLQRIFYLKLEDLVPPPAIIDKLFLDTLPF

Ki (Nurr1 LBD [1]): 0.246 µM
EC50 (Nurr1 LBD [3]): ~20 µM
SMILES: CCN(CC)Cc1cc(Nc2ccnc3cc(Cl)ccc23)ccc1O [AQ, amodiaquine]
LPS-induced expression of pro-inflammatory cytokines [2]: suppresses
